Here are results for four compounds from patent US9555018B2, “Synergistic combinations of organic acid useful for controlling microoganisms in industrial processes” (Hercules Incorporated, priority 2013, dated 2017).

Assay [1] has as its system Lactobacillus plantarum. Description: Minimal Inhibitory Concentration (MIC), two-fold dilution series in 96 well microplate, antimicrobial used alone. The class given is cell-based. Conditions: for MIC: Lactiplantibacillus plantarum; for Propionic Acid MIC (QB) used alone: sodium propionate per text. The source says: While there are various methods known to individuals skilled in the art for measuring levels of antimicrobial activity, in the following examples the endpoint used is known as the Minimal Inhibitory Concentration, or MIC. This is the lowest concentration of a substance or substances which can achieve complete inhibition of growth.
In order to determine the Minimal Inhibitory Concentration, a two-fold dilution series of the antimicrobial is constructed with the dilutions being made in growth media. The dilutions are made in a 96 well microplate such that each well has a final volume of 280 μl of media and antimicrobial. The first well has, for example, a concentration of 1000 μM antimicrobial, the second 500 μM, the third 250 μM, and so forth, with the 12th and final well in the row having no antimicrobial at all and serving as a positive growth control. After the dilution series is constructed the wells receive an inoculum of microbe suspended in growth media such that the final concentration of microbes in the well is ˜5×10^5 cfu/ml. In these examples the test microbe used is Lactobacillus plantarum. The cultures are incubated at 37° C. for 18-24 hours, and the wells scored as positive or negative for growth based on a visual examination for turbid wells, with turbidity being an indicator of growth.

The subject of assay [2] is Weisella confusa. Conditions: background statement; cited from earlier work.
Assay [3] concerns fermentation. Conditions: background statement; cited from earlier work.

In brackets after ≈: the same amount, converted by molar mass. Read-outs that look alike come from different tables or passages of the source.

Take `O=C(O)CC(O)(CC(=O)O)C(=O)O` [Citric Acid, citric acid]: the MIC in assay [1] (pH 5, Example 2, read-out: Citric Acid MIC (QA) used alone) was found to be 25 mg/mL (≈ 130 mM); in assay [1] (pH 5, Example 4, read-out: Citric acid MIC (QA) used alone), 25 mg/mL (≈ 130 mM); in assay [1] (pH 6, Example 1, 37° C., 18-24 hours, read-out: Citric Acid MIC (QA) used alone), 100 mg/mL (≈ 520 mM). Further, the “Citric Acid MIC (QA) used alone” value in assay [1] (pH 5, Example 2) is reported as 25000 ppm; in assay [1] (pH 5, Example 4), 25000 ppm; in assay [1] (pH 6, Example 1, 37° C., 18-24 hours), 100000 ppm; in assay [1] (pH 6, Example 3), 100000 ppm; in assay [1] (pH 6, Example 3, listed as citric acid) it was 100,000 ppm.

Consider `O=C([O-])c1ccccc1.[K+]` [Potassium Benzoate, potassium benzoate], for which the “Potassium benzoate MIC (QB) used alone” value in assay [1] (pH 5, Example 4, listed as Potassium benzoate) is given as 3125 ppm; in assay [1] (pH 5, Example 4, listed as potassium benzoate), 3,125 ppm; in assay [1] (pH 6, Example 3), 100000 ppm; in assay [1] (pH 6, Example 3, listed as potassium benzoate), 100,000 ppm.

For the compound `CCC(=O)[O-].[Na+]` [Sodium Propionate, sodium propionate], the “Sodium Propionate MIC (QB) used alone” value in assay [1] (pH 5, Example 2) was 100000 ppm; in assay [1] (pH 5, Example 2, listed as sodium propionate), 100,000 ppm. For the same compound, the “Propionic Acid MIC (QB) used alone” value in assay [1] (pH 6, Example 1) is 100,000 ppm; in assay [1] (pH 6, Example 1, listed as Propionic Acid), 100000 ppm.

Consider Virginiamycin, for which, in assay [2], the “concentration required to inhibit growth of Weisella confusa” value is given as “over 25 mg/L”. For the same compound, in assay [3], the “concentration that will suppress fermentation” value is recorded as “over 2 mg/L”.
